{"source": "patent US5554357A", "about": "“Magnetic resonance imaging agents containing hydrazide moieties” (Mallinckrodt Medical, Inc., priority 1994, dated 1996)", "key": {"ICR mice": {"test_system": "ICR mice", "assay": "acute intravenous toxicity", "format": "in vivo, mouse (ICR)", "settings": "single intravenous injection via lateral tail vein, males and females, 7 days observation, 95% Confidence Limits 6.8-19.6 mmol/kg", "experimental": "The acute intravenous toxicity of the compound of Example 1 was determined as follows: ICR mice, at 1 to 4 per dose level, received single intravenous injections of the test substance via a lateral tail vein at the rate of approximately 1 ml/minute. The test substances were at concentrations chosen to result in dose volumes of 5 to 75 ml/kg body weight. Dosing began at a volume of 10 ml/kg. Dose adjustments up or down were made to closely bracket the estimated LD50 with 4 animals per group (2 males and 2 females). Observations of the mice were recorded at times 0, 0.5, 1, 2, 4 and 24 hours and once daily thereafter for up to 7 days post injection. On the 7th day post injection, the mice were euthanized, weighed and necropsied. Abnormal tissues were noted. At this time a decision was made as to whether any histopathology was to be performed and whether or not the tissues should be retained. Necropsies were also performed on mice expiring after 24 hours post-injection, except for dead mice found on the weekends. The LD50 values, along with 95% CI were calculated using a modified Behrens-Reed-Meunch method."}, "[1]": {"assay": "T1 relaxivity by spin-echo NMR", "format": "physicochemical", "settings": "90 MHz, H2O/D2O (4:1), six concentrations from 20 mM down; least-square fit of 1/T1 versus concentration, correlation coefficient 0.9994", "experimental": "T1 relaxation times were measured using spin-echo sequence on the JEOL FX90Q (90 MHz) FT-NMR spectrometer/ Twenty millimolar solution of the complex in Example 1 was prepared in H2 O/D2 O (4:1) mixture and was serially diluted to lower concentrations ([…]) with H2 O/D2 O (4:1) mixture. T1 measurements were made at each of these 6 concentrations. The relaxivity (R1) was determined by applying least-square fit to the plot of 1/T1 versus concentration. The relaxivity of the complex in Example 1 was 4.85+0.06 mM^-1 sec^-1. The correlation coefficient for the least squares analysis was 0.9994."}}, "data": [{"smiles": "CN(C)NC(=O)CN(CCN(CCN(CC(=O)[O-])CC(=O)NN(C)C)CC(=O)[O-])CC(=O)[O-].O.[Gd+3]", "note": "[Example 1]", "values": [{"measurement": "LD50", "setting": "ICR mice", "value": 11.5, "unit": "mmol/kg"}, {"measurement": "relaxivity (R1)", "setting": "[1]", "value": "4.85 ± 0.06", "unit": "mM⁻¹ s⁻¹"}]}]}
